Source: patent US4619916A, “Tripeptide compounds containing pyroglutamic acid and tryptophan, process for their production and therapeutic applications” (Polifarma S.p.A., priority 1984, dated 1986)
Where a SMILES comes first, the peptide text is derived from it. [ ]: non-standard residue; d: D form. pGlu = O=C1CC[C@@H](C(=O)O)N1

Columns and labels:
[1] = tested on: Male CD Charles River rats; assay: Potentiation of the hypotensive effect of adenosine; assay type: in vivo, rat; conditions: for Effect on the hypotensive effect of adenosine: tripeptide 0.1 mg/kg in the vein, 15 minutes before adenosine (0.15 mg/kg in the vein)
Method: (§1) Male CD Charles River rats weighing 220-250 g were used, anesthetized with ethyl urethane (1.75 g/kg intraperitoneally). After incannulation of the trachea, the right carotid was isolated and connected by a cannula to a pressure measurement device. The isolated left carotid was used to record the flow by means of an electromagnetic flussimeter. Other parameters recorded were: dp/dt, ECG (electrocardiogram), BPM (beats per minute). All values were recorded on an 8 channel Hewlett Packard polygraph.
(§2) The tripeptides were dissolved in 0.9% NaCl and injected in the right femoral vein.
Any interference of synthesized peptides with the hemodynamic effects of adenosine would be shown using the method described. […] In this case the compound according to the invention was pGLU-GLU-TRP.

female Swiss albino mice = assay: Analgesic activity, writhing test with 3% aqueous acetic acid; assay type: in vivo, mouse; conditions: for Analgesic activity (mean reduction of number of contorsions vs controls): 20 minute observation
Method: This activity was evaluated with the writhing test, using a 3% aqueous acetic acid solution as pain-causing agent, injected intraperitoneally (0.1 ml/10 g). The experiment was performed with 80 female Swiss albino mice weighing 18-24 g, fasting for three hours and divided into groups of 20 animals each: (1) controls, treated with 0.9% NaCl; (2) those treated with the test tripeptide (10 mg/kg intraperitoneally); (3) those treated with adenosine (2 mg/kg intraperitoneally); (4) those treated with the tripeptide (10 mg/kg intraperitoneally) and adenosine (2 mg/kg intraperitoneally). In groups 1 and 2 the substances were administered 40 minutes before the acetic acid; in group 3 the adenosine was administered 10 minutes before the acetic acid; in group 4 the adenosine was administered 30 minutes after the tripeptide and 10 minutes before the acetic acid. After the acetic acid innoculation, the animals were placed in groups of 5 in plastic cages, and observed for a 20 minute period. The number of contorsions the animals made during that period was recorded. Based on the mean reduction of the number of contorsions of the treated animals with respect to the controls, the analgesic action of the test substance was calculated.

[2] = tested on: Male CD Charles River rats; assay: Hypotensive effect in anesthetized rats (carotid pressure after intravenous injection); assay type: in vivo, rat; conditions: dose of 2 mg/kg, injected in the right femoral vein, in 0.9% NaCl, urethane-anesthetized rats
Method: as §1, with “After” for “Male CD Charles River rats weighing 220-250 g were used, anesthetized with ethyl urethane (1.75 g/kg intraperitoneally). After”
as §2

Nc1ncnc2c1ncn2[C@@H]1O[C@H](CO)[C@@H](O)[C@H]1O [adenosine, reference compound]
Hemodynamic effect of adenosine alone ([1]; 0.15 mg/kg in the vein): transient hypotensive effect | Analgesic activity (mean reduction of number of contorsions vs controls) (female Swiss albino mice; adenosine 2 mg/kg intraperitoneally, 10 minutes before acetic acid): 20%

C[C@H](NC(=O)[C@@H]1CCC(=O)N1)C(=O)N[C@@H](Cc1c[nH]c2ccccc12)C(=O)O [pGLU--ALA--TRP, pGLU-ALA-TRP] ([pGlu]-Ala-Trp-OH)
Δ on maximum (lowering of the maximum pressure) [2]: 10 mm Hg | Δ on minimum (lowering of the minimum pressure) [2]: 20 mm Hg

N=C(N)NCCC[C@H](NC(=O)[C@@H]1CCC(=O)N1)C(=O)N[C@@H](Cc1c[nH]c2ccccc12)C(=O)O [pGLU--ARG--TRP, pGLU-ARG-TRP] ([pGlu]-Arg-Trp-OH)
Δ on maximum (lowering of the maximum pressure) [2]: 25 mm Hg | Δ on minimum (lowering of the minimum pressure) [2]: 15 mm Hg

NC(=O)C[C@H](NC(=O)[C@@H]1CCC(=O)N1)C(=O)N[C@@H](Cc1c[nH]c2ccccc12)C(=O)O [pGLU--ASN--TRP, pGLU-ASN-TRP] ([pGlu]-Asn-Trp-OH)
Δ on maximum (lowering of the maximum pressure) [2]: 35 mm Hg | Δ on minimum (lowering of the minimum pressure) [2]: 20 mm Hg | Effect on the hypotensive effect of adenosine [1]: potentiates and prolongs the hypotensive effect | Analgesic activity of tripeptide together with adenosine (female Swiss albino mice; tripeptide 10 mg/kg i.p. plus adenosine 2 mg/kg i.p. given 30 minutes after the tripeptide and 10 minutes before acetic acid): additive effect | Analgesic activity (mean reduction of number of contorsions vs controls) (female Swiss albino mice; tripeptide 10 mg/kg intraperitoneally, 40 minutes before acetic acid): 25%

O=C(O)C[C@H](NC(=O)[C@@H]1CCC(=O)N1)C(=O)N[C@@H](Cc1c[nH]c2ccccc12)C(=O)O [pGLU--ASP--TRP, pGLU-ASP-TRP] ([pGlu]-Asp-Trp-OH)
Δ on maximum (lowering of the maximum pressure) [2]: 10 mm Hg | Δ on minimum (lowering of the minimum pressure) [2]: 10 mm Hg

NC(=O)CC[C@H](NC(=O)[C@@H]1CCC(=O)N1)C(=O)N[C@@H](Cc1c[nH]c2ccccc12)C(=O)O [pGLU--GLN--TRP, pGLU-GLN-TRP] ([pGlu]-Gln-Trp-OH)
Δ on maximum (lowering of the maximum pressure) [2]: 20 mm Hg | Δ on minimum (lowering of the minimum pressure) [2]: 10 mm Hg

O=C(O)CC[C@H](NC(=O)[C@@H]1CCC(=O)N1)C(=O)N[C@@H](Cc1c[nH]c2ccccc12)C(=O)O [pGLU--GLU--TRP, pGLU-GLU-TRP] ([pGlu]-Glu-Trp-OH)
Δ on maximum (lowering of the maximum pressure) [2]: 20 mm Hg | Δ on minimum (lowering of the minimum pressure) [2]: 10 mm Hg | Effect on the hypotensive effect of adenosine [1]: potentiates and prolongs the hypotensive effect

O=C(CNC(=O)[C@@H]1CCC(=O)N1)N[C@@H](Cc1c[nH]c2ccccc12)C(=O)O [pGLU--GLY--TRP, p-GLU-GLY-TRP] ([pGlu]-Gly-Trp-OH)
Δ on maximum (lowering of the maximum pressure) [2]: 25 mm Hg | Δ on minimum (lowering of the minimum pressure) [2]: 35 mm Hg

CCOC(=O)[C@H](Cc1c[nH]c2ccccc12)NC(=O)[C@@H](NC(=O)[C@@H]1CCC(=O)N1)[C@@H](C)CC [pGLU--ILE--TRP--OEt] ([pGlu]-Ile-Trp-OEt)
Δ on maximum (lowering of the maximum pressure) [2]: 30 mm Hg | Δ on minimum (lowering of the minimum pressure) [2]: 25 mm Hg

CC(C)C[C@H](NC(=O)[C@@H]1CCC(=O)N1)C(=O)N[C@@H](Cc1c[nH]c2ccccc12)C(=O)O [pGLU--LEU--TRP, pGLU-LEU-TRP] ([pGlu]-Leu-Trp-OH)
Δ on maximum (lowering of the maximum pressure) [2]: 30 mm Hg | Δ on minimum (lowering of the minimum pressure) [2]: 30 mm Hg

CCOC(=O)[C@H](Cc1c[nH]c2ccccc12)NC(=O)[C@H](CC(C)C)NC(=O)[C@@H]1CCC(=O)N1 [pGLU--LEU--TRP--OEt, pGLU-LEU-TRP-OEt] ([pGlu]-Leu-Trp-OEt)
Δ on maximum (lowering of the maximum pressure) [2]: 30 mm Hg | Δ on minimum (lowering of the minimum pressure) [2]: 20 mm Hg

NCCCC[C@H](NC(=O)[C@@H]1CCC(=O)N1)C(=O)N[C@@H](Cc1c[nH]c2ccccc12)C(=O)O [pGLU--LYS--TRP, pGLU-LYS-TRP] ([pGlu]-Lys-Trp-OH)
Δ on maximum (lowering of the maximum pressure) [2]: 35 mm Hg | Δ on minimum (lowering of the minimum pressure) [2]: 25 mm Hg

O=C1CC[C@@H](C(=O)N[C@@H](CO)C(=O)N[C@@H](Cc2c[nH]c3ccccc23)C(=O)O)N1 [pGLU--SER--TRP, pGLU-SER-TRP] ([pGlu]-Ser-Trp-OH)
Δ on maximum (lowering of the maximum pressure) [2]: 45 mm Hg | Δ on minimum (lowering of the minimum pressure) [2]: 35 mm Hg
